Results published in patent publication US20080089851A1, “Brown Algae Cell Lyophilisate, Method For The Obtention Thereof” (BIOTECHMARINE, priority 2005, published 2008).

Key:
[1] = test system: microsomes of human keratinocytes; test: Transport of glucids (glucose), direct treatment of isolated microsomes; assay type: biochemical; settings: for Capture of [^3H]3-O-MG: Phloretin 0.25 mM
Procedure: 7.1—Assessment of the Rate of Transport of Macromolecules (Glucids, Lipids and Proteins) in a System of Isolated Microsomes. Direct Effect of the BB Product on Isolated Microsomes: The microsomes of human keratinocytes form a membrane fraction obtained by high-speed differential centrifugation of a cell homogenate. This preparation of microsomes requires the addition of exogenous cofactors such as NADPH. 7.1.1—Transport of Glucids (Glucose) The assay was performed in triplicate after the direct treatment of microsomes. • Charge 1: negative control not receiving any product. • Charge 2: positive control (0.25 mM phloretin) • Charges 3-5: treated with the investigated product (3 concentrations) • Charges 6-8: treated with 0.25 mM phloretin and with the investigated product (3 concentrations) The obtained microsomes from human keratinocytes in culture were washed 3 times with a PBS buffer without glucose then pre-incubated in 1 ml of the same buffer for 30 minutes at 37° C. Subsequently, this solution was discarded and the microsomes placed into the glucose-free PBS buffer containing 3-0-Methyl glucose (MG) and [^3H] 3-0-MG with stirring in a water-bath at 37° C. The capture of 3-0-MG is stopped by addition of 1 ml of cold PBS containing cytochalasine B. The kinetics of incubation was performed between 30 and 120 seconds. The microsomes were further rinsed 2 times with PBS, then dissolved in NaOH (1M) at 4° C., over night. The radioactivity was determined with a scintillation counter. The treatments of microsomes with the BB product alone or in the presence of phloretin were carried out at the same time as the introduction of [3H] 3-0-MG into the incubation medium. The protein assay was performed following the BRADFORD method. The increase in absorbance at 595 nm, determined with spectrophotometer, is proportional to the protein concentration.

[2] = test system: human keratinocytes in senescence; test: Transport of glucids (glucose), human keratinocytes in senescence; assay type: cell-based; settings: for Capture of [^3H]3-O-MG: Phloretin 0.25 mM
Procedure: The obtained microsomes from human keratinocytes in culture were washed 3 times with a PBS buffer without glucose then pre-incubated in 1 ml of the same buffer for 30 minutes at 37° C. Subsequently, this solution was discarded and the microsomes placed into the glucose-free PBS buffer containing 3-0-Methyl glucose (MG) and [^3H] 3-0-MG with stirring in a water-bath at 37° C. The capture of 3-0-MG is stopped by addition of 1 ml of cold PBS containing cytochalasine B. The kinetics of incubation was performed between 30 and 120 seconds. The microsomes were further rinsed 2 times with PBS, then dissolved in NaOH (1M) at 4° C., over night. The radioactivity was determined with a scintillation counter. 7.3-Assessment of the Rate of Transport of Macromolecules at the Level of Human Keratinocytes in Senescence The senescence is a phenomenon of cellular aging, where the cells are arrested in the phase G1 of the cell cycle and never enter the synthesis phase leading to the cell division. Senescent cells are characterized by their slow metabolism at synthesis and transport of macromolecules levels. The cells in culture deprived of serum stop their growth, but continue to progress through the cell cycle until they reach the phase G1. The applied method allowed to obtain, from a human skin biopsy, primary cultures of keratinocytes. The assays were performed on keratinocytes, between the 8th and the 10th passage, in order to ensure the presence of senescent cells at control cells level. The keratinocytes were seeded in multiwell plates (6 wells) at a rate of 10^5 cells per well in 3 ml of culture medium […] supplemented with EGF, hydrocortisone, insulin and […]. Afterwards they are maintained for 5 days in incubator under CO2. 7.3.1-Transport of Glucids (Glucose) The assay was carried out in triplicate on human keratinocytes in senescence. • Charge 1: negative control not receiving any product. • Charge 2: positive control (0.25 mM Phloretin) • Charge 3: treated receiving the investigated product • Charges 6-8: treated with 0.25 mM phloretin and with the investigated product (3 concentrations) The treatment of keratinocytes with the BB product in the presence and absence of 0.25 mM phloretin was performed for 20 minutes at 37° C. The membrane microsomes were separated by differential centrifugation. The same protocol of capture of [3H] 3-0-Methyl-Glucose was applied to the determination of the rate of transport of glucose (cf. 6.1.1).

[3] = test system: normal human keratinocytes; test: Transport of glucides (glucose), normal human keratinocytes; assay type: cell-based; settings: for Capture of [^3H]3-O-MG: Phloretin 0.25 mM
Procedure: The obtained microsomes from human keratinocytes in culture were washed 3 times with a PBS buffer without glucose then pre-incubated in 1 ml of the same buffer for 30 minutes at 37° C. Subsequently, this solution was discarded and the microsomes placed into the glucose-free PBS buffer containing 3-0-Methyl glucose (MG) and [^3H] 3-0-MG with stirring in a water-bath at 37° C. The capture of 3-0-MG is stopped by addition of 1 ml of cold PBS containing cytochalasine B. The kinetics of incubation was performed between 30 and 120 seconds. The microsomes were further rinsed 2 times with PBS, then dissolved in NaOH (1M) at 4° C., over night. The radioactivity was determined with a scintillation counter. 7.2—Assessment of the Rate of Transport of Macromolecules at the Level of Normal Human Keratinocytes The applied method was that of explants allowing to obtain, from a biopsy of human skin, keratinocytes in primary cultures. The assays were carried out on keratinocytes between the 2nd and the 4th passage in order to ensure a reproductibility between the different experiences. The keratinocytes were divided into multiwell plates (6 wells) at a rate of 10^5 cells per well in 1 ml of culture medium […] supplemented with insulin and hydrocortisone. The cells were incubated in the presence and absence of the investigated product. 7.2.1—Transport of Glucides (Glucose) The assay was carried out in triplicate on normal human keratinocytes in culture. • Charge 1: negative control not receiving any product. • Charge 2: positive control (0.25 mM Phloretin) • Charge 3: treated receiving the investigated product • Charges 6-8: treated with 0.25 mM phloretin and the investigated product (3 concentrations) The treatment of keratinocytes with the BB product in the presence and absence of 0.25 mM phloretin was carried out for 20 minutes at 37° C. The membrane microsomes were separated by differential centrifugation. The same protocol of capture of [3H] 3-0-Methyl-Glucose was adopted for the determination of the rate of transport of glucose. (cf. 6.1.1).

[4] = test system: reconstructed CORNEA Skinethic (keratinocytes of the TR 146 line); test: Mucous tolerance: cytotoxicity (MTT colour) on reconstructed CORNEA Skinethic; assay type: cell-based, human; design: key to TOXICITY: NI = not irritant; I = irritant; VI = very irritant; settings: for Colour of both cultures: MTT
Procedure: 1. —Experimental Protocol
Keratinocytes of the TR 146 line, spontaneously transformed, amplified, by cell culture in a defined modified MCDB 153 medium were used.
When cultured on the interface air/liquid in a defined medium, these human keratinocytes form a multilayered epithelium without the cornea layer similar to the human cornea.
The product to be investigated, in this case the BB product according to Example 3, is applied at a rate of 30 μL onto the surface of eight equivalent cultures using a micro-pipette. These cultures are subsequently incubated at 37° C., 5% of CO2, for 10 minutes, 1 hour, 3 hours and 24 hours, at a rate of two cultures by incubation period.
Negative (buffered saline solution) and positive (SDS 0.5% and 1%) controls are prepared sterile and applied in the same way on two cultures, respectively.
These cultures are subsequently incubated at 37° C., 5% of CO2, for 1 hour and 24 hours, at a rate of two cultures by incubation period.
2. —Assessment of the Cellular Viability
The cellular viability is further measured qualitatively after labelling with a vital dye. The MTT system measures the mitochondrial dehydrogenase activity of living cells. The key component is the 3-[4,5-dimethylthiazol-2-yl]-2,5-diphenyl tetrazolium bromide or MTT.
The salt solutions buffered with MTT, in the absence of phenol red, are yellow coloured. The mitochondrial deshydrogenases of living cells cut the tetrazolium cycle, thus inducing formation of purple formazan crystals, insoluble in aqueous solutions.
The crystals formed by the viable cells are trapped in the polycarbonate filters which serve as support to epithelial cultures. The cultures turn to a uniform intense blue/purple colour when they are viable, but remain white/yellow in the case of cell mortality.
The results are compared to negative and positive control substances.
0.15 ml of culture medium containing 10% vol/vol of MTT solution are pipetted under each filter/culture support. After an incubation of 30 min at room temperature, the colour of the different cultures is observed.
Negative control cultures should show an intense blue/purple colour, proof of the viability of mucosa after being in contact for 24 hours.
Positive control cultures should show a white colour, proof of the cellular mortality as from the 1st hour of contact.

O=C(CCc1ccc(O)cc1)c1c(O)cc(O)cc1O [Phloretin, phloretin]
Capture of [^3H]3-O-MG ([1]; 30 s): 4 nmol/mg proteins
Capture of [^3H]3-O-MG ([1]; 60 s): 6 nmol/mg proteins
Capture of [^3H]3-O-MG ([1]; 90 s): 8 nmol/mg proteins
Capture of [^3H]3-O-MG ([1]; 120 s): 8 nmol/mg proteins
rate of transport of glucose (in words) ([1]; phloretin 0.25 mM alone): strongly inhibits
Capture of [^3H]3-O-MG ([2]; 30 s): 1 nmol/mg of proteins
Capture of [^3H]3-O-MG ([2]; 60 s): 3 nmol/mg of proteins
Capture of [^3H]3-O-MG ([2]; 90 s): 5 nmol/mg of proteins
Capture of [^3H]3-O-MG ([2]; 120 s): 7 nmol/mg of proteins
rate of transport of glucose (in words) ([2]; phloretin 0.25 mM alone): strongly inhibits
Capture of [^3H]3-O-MG ([3]; 30 s): 6 nmol/mg of proteins
Capture of [^3H]3-O-MG ([3]; 60 s): 8 nmol/mg of proteins
Capture of [^3H]3-O-MG ([3]; 90 s): 9 nmol/mg of proteins
Capture of [^3H]3-O-MG ([3]; 120 s): 10 nmol/mg of proteins
rate of transport of glucose (in words) ([3]; phloretin 0.25 mM alone): strongly inhibits

CCCCCCCCCCCCOS(=O)(=O)[O-].[Na+] [SDS]
TOXICITY ([4]; SDS 0.5%): I
Colour of both cultures ([4]; SDS 0.5%, 10 min): blue
Colour of both cultures ([4]; SDS 0.5%, 1 h): white
Colour of both cultures ([4]; SDS 0.5%, 3 h): white
TOXICITY ([4]; SDS 1%): VI
Colour of both cultures ([4]; SDS 1%, 10 min): white
Colour of both cultures ([4]; SDS 1%, 1 h): white
